Experimental data taken from patent publication US20080227637A1, “A Method of Controlling Weeds” (BASF Aktiengesellschaft, priority 2005, published 2008).

Assays:
Assay type in all cases: in vivo
[1] = test system: Glyphosate susceptible marestail (ERICA); test: Greenhouse test, post-emergence control of glyphosate susceptible marestail; settings: use rate 420 g/ha
From the text: (§1) The phenyluracils I and/or the other active ingredients according to the present invention were formulated in a suitable way, either separately or in mixture, e.g. as emulsifiable concentrates (EC), soluble concentrates (SL), suspo-emulsions (SE), suspension concentrates (SC) or water-dispersible granules (WG). The formulation(s) were suspended or emulsified in water as a distribution medium immediately prior to spraying. Afterwards, the aqueous mixture was evenly sprayed on the test plots or plant pots by means of finely distributing nozzles.
(§2) For the greenhouse tests, plants were grown in pots to a height between 3 and 6 cm, and then treated (post-emergence). During the test period of 29 days, the plants were tended.
(§3) The evaluation of the damage caused by the phenyluracils I and/or the other active ingredients according to the present invention was carried out using a scale from 0 to 100%, compared to the untreated control plots. Here, 0 means no damage and 100 means complete destruction of the plants of a respective weed or crop species.
(§4) In this example, glyphosate (isopropylammonium salt) was formulated as a 353 g/l SL and Phenyluracil I.7 as a 120 g/l EC. Prior to application, the formulated active ingredients were tank-mixed with an aqueous 187 l/ha spray solution which contained, in addition, 15 g/l of ammonium sulphate and 2.5 g/l of non-ionic surfactant.

[2] = test system: Glyphosate resistant cotton; test: Field test, control of glyphosate resistant cotton in post-directed treatment; settings: glyphosate 560 g/ha
Protocol: (§5) In the examples below, the value E which is to be expected if the activity of the individual compounds is just additive was calculated using the method of S. R. Colby (1967) “Calculating synergistic and antagonistic responses of herbicide combinations”, Weeds 15, p. 22 ff.
(§6) where X=effect in percent using active compound A at an application rate a; Y=effect in percent using active compound B at an application rate b; E=expected effect (in %) of A+B at application rates a+b.
(§7) If the experimentally determined value is higher than the value E calculated according to Colby's equation, a synergistic effect is present.
as §1
(§8) As regards the field tests, the test plots were of uniform size (typically between 14 and 37 square meters, each) and the distribution of treated and untreated plots was organized according to a randomised bloc design. […]

[3] = test system: Glyphosate resistant marestail (ERICA); test: Greenhouse test, post-emergence control of glyphosate resistant marestail; settings: use rate 420 g/ha
From the text: as §1, §2, §3, §4

[4] = test system: glyphosate resistant corn; test: Field test, control of volunteer glyphosate resistant corn by pre-emergence application; settings: Imazethapyr 70 g/ha, pre-emergence to soybean crop
Protocol: as §5, §6, §7, §1, §8

Structure (SMILES)	Glyphosate susceptible marestail (ERICA) at 29 DAT (% herbicide control) [1] [%]	Glyphosate resistant cotton at 3 DAT (% control), Found [2] [%]	Glyphosate resistant marestail (ERICA) at 29 DAT (% herbicide control) [3] [%]	Control of glyphosate resistant corn at 29 DAT (% control), Found [4] [%]
O=C(O)CNCP(=O)(O)O [Glyphosate, glyphosate]	98	0	0	–
CCc1cnc(C2=NC(C)(C(C)C)C(=O)N2)c(C(=O)O)c1 (stereo not shown) [Imazethapyr, imazethapyr]	–	–	–	23
